Experimental data published in patent US4983597A, “Beta-lactams as anticholesterolemic agents” (Merck & Co., Inc., priority 1989, dated 1991).

biological target: T1, HMG-CoA synthase (Rattus norvegicus, UniProt P17425); test: HMG-CoA Synthase Inhibition Assay; format: biochemical; details: Table I; rat liver enzyme, 1-[14C]-acetyl-CoA incorporation
T1 construct: The livers from male Charles River CD rats (225-350 g) were homogenized; from tissue; host or cells: rat liver (male Charles River CD rats), 100,000 x g supernatant, ammonium sulfate and DEAE-52 fraction
T1 sequence (P17425 1-520): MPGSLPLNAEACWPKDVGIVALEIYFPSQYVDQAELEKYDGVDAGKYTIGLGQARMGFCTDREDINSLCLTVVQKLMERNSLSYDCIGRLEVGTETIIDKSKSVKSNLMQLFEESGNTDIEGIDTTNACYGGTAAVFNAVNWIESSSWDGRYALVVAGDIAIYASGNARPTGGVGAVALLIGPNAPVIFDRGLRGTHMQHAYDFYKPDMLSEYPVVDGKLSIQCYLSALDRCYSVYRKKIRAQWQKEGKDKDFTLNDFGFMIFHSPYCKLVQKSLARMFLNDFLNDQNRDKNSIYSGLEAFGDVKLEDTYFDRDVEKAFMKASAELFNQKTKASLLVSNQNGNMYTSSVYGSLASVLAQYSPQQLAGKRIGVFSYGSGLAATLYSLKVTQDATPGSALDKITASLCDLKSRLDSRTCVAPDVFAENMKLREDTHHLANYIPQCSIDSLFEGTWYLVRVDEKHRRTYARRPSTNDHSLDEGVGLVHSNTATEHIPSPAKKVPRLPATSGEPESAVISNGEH
Procedure: The intrinisic HMG-CoA synthase inhibition activity of the compounds of this invention is measured by the standard in vitro protocol described below:
The livers from male Charles River CD rats (225-350 g) were homogenized in 0.25 M sucrose which was adjusted with phenylmethylsulfonylfluoride (PMSF) and N-p-tosyl-1-lysine chloromethyl ketone (TLCK) so that the final concentration of each was […], respectively. The homogenate was centrifuged at 15,000× g for 20 minutes, the supernatant filtered through a fine nylon screen to remove most of the fat layer and recentrifuged at 100,000× g for 1 hour. This supernatant was removed and 1 M potassium phosphate, dithiothreitol (DTT) and ethylene glycolbis(β-aminoethyl ether)-N,N,N',N'-tetraacetic acid (EGTA) added to give a final concentration of 0.1 M (pH 7.2), 0.5 mM and 0.1 mM, respectively. Solid ammonium sulfate was added to 50% saturation to the protein solution, it was centrifuged at 15,000× g and the supernatant discarded. This precipitated protein could be stored at -70° C. for at least one month with very little loss of activity. The ammonium sulfate precipitate was dissolved in an minimal amount of 0.06 M potassium phosphate buffer (pH 7.2) containing 0.5 mM dithiothreitol and 0.1 mM EGTA (referred to as 0.06 M phosphate buffer) and dialyzed overnight against 2 liters of the same buffer to remove the ammonium sulfate and to inactivate HMG-CoA lyase [Clinkenbeard, et al., J. Biol. Chem. 250, 3108-3116(1975)].
The dialyzed extract was added to a column of DEAE-52 (Whatman) which had been equilibrated with 0.06 M phosphate buffer (10 mg of protein in 1 ml bed volume of the resin). The DEAE-cellulose was eluted with 0.06 M phosphate buffer until the optical density at 280 nm was essentially zero. This fraction contained the β-ketoacetyl-CoA thiolase activity. The HMG-CoA synthase was eluted from the column with 0.1 M phosphate buffer (pH 7.2) containing 0.5 mM DTT and […] EGTA, and was virtually free of all thiolase activity. The protein was precipitated by the addition of ammonium sulfate to give 50% saturation. This solution was stirred for 10 minutes at 4° C. and the precipitate collected by centrifugation at 15,000 rpm for 10 minutes. The supernatant was discarded and the precipitate dissolved in a minimum of 0.06 M phosphate buffer, pH 7.2 (about 10 ml) and the enzyme stored at -80° C.
HMG-CoA Synthase Inhibition Assay
Enzyme protein (ca. 24 mg) was added to a solution containing […] Tris-HCl (pH 8.0), 11.7 μM MgCl2, 1.17 μM ethylenediaminetetraacetic acid (EDTA), 0.58 μM dithiothreitol, and the indicated concentrations of the test compound (added as a 2 mg/ml solution in dimethylsulfoxide). The incubation took place in a volume of 0.085 ml at 30° in a shaking water bath. After 5 minutes, […] of a solution containing acetoacetyl-CoA and 0.1 μCi of 1-[^14 C]-acetyl-CoA was added to give a final concentrations of 0.1 and 0.4 μM, respectively. The incubation was continued for 10 more minutes and the reaction stopped by the addition of […] of the assay mixture to 0.2 ml of 6N HCl in a glass scintillation vial. The vial was heated for 1 hour at 120° after which time 0.2 ml more of 6N HCl was again added to each vial and the heating continued for another hour. Following this, 1.0 ml of 0.9% saline was added to each vial and finally 10 ml of scintillation liquid. Radioactivity was determined in a Packard Tri-Carb liquid scintillation counter. Percent inhibition is calculated by the formula: [formula]
IC50 values were determined by plotting the log of the concentration of the test compound verses the percentage inhibition and fitting a straight line to the resulting data by using the least squares method.

Row | SMILES | IC50 [nM]
1 | CC[C@@H]1C(=O)N(S(=O)(=O)c2ccc(C)cc2)[C@@H]1COC(=O)c1ccc(OCc2ccccc2)cc1 (relative stereo) [Table I q] | 40
2 | CC[C@@H]1C(=O)N(S(=O)(=O)c2ccc(C)cc2)[C@H]1COC(=O)c1ccc(OC)cc1 (relative stereo) [Table I tt] | 170
3 | CC[C@@H]1C(=O)N(S(=O)(=O)c2ccc(C)cc2)[C@@H]1COC(=O)c1ccsc1 (relative stereo) [Table I a] | 710
4 | CCC[C@@H]1C(=O)N(S(=O)(=O)c2ccc(C)cc2)[C@H]1COC(=O)c1ccc(OC)cc1 (relative stereo) [Table I rr] | 35
5 | CC[C@@H]1C(=O)N(S(=O)(=O)c2ccc(C)cc2)[C@@H]1COC(=O)c1ccnnc1 (relative stereo) [Table I m] | 82
6 | COc1ccc(C(=O)OC[C@@H]2[C@H](CO)C(=O)N2S(=O)(=O)c2ccc(C)cc2)cc1 (relative stereo) [Table I aa] | 180
7 | CC[C@@H]1C(=O)N(S(=O)(=O)c2ccc(C)cc2)[C@@H]1COC(=O)c1ccccc1N (relative stereo) [Table I n] | 31
8 | CCCCNC(=O)c1ccc(C(=O)OC[C@@H]2[C@H](CC)C(=O)N2S(=O)(=O)c2ccc(C)cc2)cc1 (relative stereo) [Table I jj] | 20
9 | C=CCOc1c(NC(C)=O)cc(C(=O)OC[C@@H]2[C@H](CC)C(=O)N2S(=O)(=O)c2ccc(C)cc2)cc1OC (relative stereo) [Table I mm] | 300
10 | CC[C@@H]1C(=O)N(S(=O)(=O)c2ccc(C)cc2)[C@@H]1COC(=O)c1ccc(OC)c(OC)n1 (relative stereo) [Table I pp] | 89
11 | CC[C@@H]1C(=O)N(S(=O)(=O)c2ccc(C)cc2)[C@@H]1COC(=O)c1ccc(OC)nc1 (relative stereo) [Table I f] | 41
12 | CC[C@@H]1C(=O)N(S(=O)(=O)c2ccc(C)cc2)[C@@H]1COC(=O)c1cccc(NC(C)=O)c1 (relative stereo) [Table I u] | 72
13 | CC[C@@H]1C(=O)N(S(=O)(=O)c2ccc(C)cc2)[C@@H]1COC(=O)c1ccc(OC)cc1 [Table I i] | 30

same assay, conditions: Table II; rat liver enzyme, 1-[14C]-acetyl-CoA incorporation

Row | SMILES | IC50 [nM]
14 | CCOc1ccc(CC(=O)OC[C@H]2[C@@H](CC)C(=O)N2S(=O)(=O)c2ccc(C)cc2)cc1 (relative stereo) [Table II r] | 22
15 | CC[C@@H]1C(=O)N(S(=O)(=O)c2ccc(C)cc2)[C@@H]1COC(=O)/C=C/c1ccco1 (relative stereo) [Table II m] | 250
16 | CC[C@H]1C(=O)N(S(=O)(=O)c2ccc(C)cc2)[C@H]1COC(=O)/C=C/c1ccc(OC)c(OC)n1 (relative stereo) [Table II z] | 27
17 | CC[C@@H]1C(=O)N(S(=O)(=O)c2ccc(C)cc2)[C@@H]1COC(=O)/C=C/c1ccc(OC)cc1 [Table II k] | 11
18 | CC[C@@H]1C(=O)N(S(=O)(=O)c2ccc(C)cc2)[C@@H]1COC(=O)/C=C/c1cccnc1 (relative stereo) [Table II h] | 31
19 | CC[C@H]1C(=O)N(S(=O)(=O)c2ccc(C)cc2)[C@H]1COC(=O)NC1CCCCC1 (relative stereo) [Table II w] | 54
20 | CC[C@H]1C(=O)N(S(=O)(=O)c2ccc(C)cc2)[C@H]1COC(=O)Cc1ccc(OC)c(OC)c1 (relative stereo) [Table II y] | 30

same assay, conditions: Table V; rat liver enzyme, 1-[14C]-acetyl-CoA incorporation

Row | SMILES | IC50 [nM]
21 | CC(=O)OCC(C)C1CC(=O)N1S(=O)(=O)c1ccc(C)cc1 (stereo not drawn) [Table V g] | 290
22 | CC[C@H]1C(=O)N(S(=O)(=O)c2ccc(C)cc2)[C@H]1CCc1ccccc1 (relative stereo) [Table V b] | 86
23 | CC[C@H]1C(=O)N(S(=O)(=O)c2ccc(C)cc2)[C@H]1CNc1ccc(C(=O)O)cc1 (relative stereo) [Table V a, (±) cis-3-Ethyl-4-hydroxycarbonylphenylaminomethyl-N-toluenesulfonyl-2-azetidinone] | 9900

same assay, conditions: Table VI; rat liver enzyme, 1-[14C]-acetyl-CoA incorporation

Row | SMILES | IC50 [nM]
24 | Cc1ccc(S(=O)(=O)N2C(=O)C(C)(C)C2C(Cc2ccccc2)OC(=O)c2ccccc2)cc1 (stereo not drawn) [Table VI b] | 400
